Laboratory results: patent US20100286283A1, “MICROTUBULE-DISRUPTNG AGENT AND CANCER CELL PROLIFERATION INHIBITOR CONTAINING THE SAME” (priority 2007, published 2010)

How the values were obtained:
[1] = system: tubulins; assay: Tubulin binding experiment, comigration in SDS-PAGE; conditions: for influence on comigration of NBD-PZ-CO—CH═CH—(CH2)5—CH3 with tubulins: compound coexisting with the probe
Description: Tubulins and a fluorescence dye, NBD-PZ or NBD-PZ-CO—CH═CH—(CH2)5—CH3 were reacted and electrophoresis (SDS-PAGE) was then performed. Binding with the tubulins was determined with comigration (fluorescence derived from NBD-PZ was detected with tubulins).

[2] = system: tubulins; assay: Tubulin polymerization experiment, absorbance at 340 nm; assay type: biochemical; conditions: 20 μM tubulins
Description: Polymerization of 20 μM of tubulins was evaluated by measuring an absorbance at a wavelength of 340 nm.
Along with gradually polymerizing tubulins in a polymerization solution (80 mM PIPES, pH 6.9, 2 mM MgCl2, 0.5 mM EGTA, 5% glycerol and 1 mM GTP), an absorbance of the solution at a wavelength of 340 nm increases. The absorbance (340 nm) was measured in every 5 minutes to thus evaluate an influence given to the polymerization.

[3] = system: HGC-27 cells; assay: Immunostaining of actin and tubulins in gastric cancer cells; assay type: cell-based; conditions: 40 μM, 6 hours
Description: Gastric cancer cells (HGC-27 cells) were incubated with 6-shogaol at 2 μg/ml for 6 hours and then fixed, and actin was fluorescent-stained with Alexa Fluor phalloidin (Molecular Probes Inc., Eugene, Oreg.), and tubulins were fluorescent-stained with an anti-tubulin β antibody (Lab Vision Co., Fremont, Calif.) and Alexa Fluor 488 labeled second antibody (Molecular Probes, Inc.).
Gastric cancer cells (HGC-27 cells) were incubated with CH3—CO—CH═CH—(CH2)4—CH3, CH3—CO—(CH2)6—CH3 or CH3—CH2—CH═CH—(CH2)4—CH3 (40 μM) for 6 hours and then fixed, and tubulins were fluorescent-stained with anti-tubulin β antibody (Lab Vision Co., Fremont, Calif.) and Alexa Fluor 488 labeling second antibody (Molecular Probes, Inc.).

[4] = system: HGC-27 cells; assay: Viable cell ratio of HGC-27 cells, CellTiter96 cell proliferation assay; assay type: cell-based; conditions: 0 to 40 μM, 24 hours
Description: 1×10^4 gastric cancer cells (HGC-27 cells) were seeded in 96-well plates, and incubated with CH3—CO—CH═CH—(CH2)4—CH3, CH3—CO—(CH2)6—CH3 or CH3—CH2—CH═CH—(CH2)4—CH3 (0 to 40 μM) for 24 hours from the next day. Cell viability was evaluated in a coloring method using CellTiter96 cell proliferation assay (Promega Co., Madison, Wis.), and an absorbance was measured. In this assay, living cells develop color with a reagent, and as the number of living cells is larger, the absorbance is higher. The viable cell ratio was calculated by (absorbance at each addition concentration)/(absorbance at 0 μM). Therefore, the viable cell ratio was 1.0 on the basis of 0 μM.

[5] = system: various cancer cells (HGC-27 cells, AGS cells, KATO III cells, Jurkat cells, A549 cells, and SW620 cells); assay: Viability (ED50) of various cancer cells; assay type: cell-based; conditions: 24 hours culture
Description: (§1) ED50: concentration of 6-shogaol, which decreases the cell viability to 0.5 (50%) as compared with the control.
(§2) ED50 of 6-shogaol was examined on various cancer cells (HGC-27 cells, AGS cells, KATO III cells, Jurkat cells, A549 cells, and SW620 cells) to evaluate whether or not 6-shogaol was also effective for cancer cells other than gastric cancer cells. The culturing time was set to 24 hours.

[6] = system: HGC-27 cells; assay: Influence on cell cycle, BrdU flow cytometry; assay type: cell-based; conditions: 2 μg/ml, 18 hours
Description: 2×10^5 gastric cancer cells (HGC-27 cells) were seeded in 12-well plates and incubated in the presence of 6-shogaol at 2 μg/ml for 18 hours from the next day, and then, further incubated in the presence of 10 μM of BrdU for 2 hours. In order to measure intake of BrdU in nuclei and DNA amounts in the nucleus, the cells were stained using a BrdU flow kit (BD Pharmingen, Inc., San Diego, Calif.). 10000 cells were analyzed with the flow cytometer manufactured by Beckman Coulter, Inc. (Fullerton, Calif.). The cells containing a large amount of DNA and a small amount of BrdU were considered to be in G2-M phase.

[7] = system: SH groups contained in tubulins; assay: Quantification of SH groups of tubulin, Ellman method; assay type: biochemical; conditions: tubulins 2 μM, 100 μM of 6-shogaol
Description: SH groups contained in tubulins are converted to 5,5′-dithiobis-nitrobenzoic acid into thionitrobenzoate, and an absorbance of the solution at a wavelength of 412 nm (Ellman reaction) increases. The absorbance (412 nm) was measured to evaluate an influence given to an amount of SH groups.
An α,β-unsaturated carbonyl compound having a larger molecular weight reacted with more SH groups in the tubulins, and as a result, the amount of the SH groups was decreased and the absorbance (412 nm) was lowered (FIG. 8).

[8] = system: A549 cells; assay: Viability (ED50) of A549 cells; assay type: cell-based; conditions: 24 hours culture
Description: as §1, §2

[9] = system: gastric cancer cells (HGC-27 cells); assay: Effect on tumor of gastric cancer cells transplanted to a nude mouse; assay type: in vivo; conditions: 400 μl at 0 to 200 μg/ml into the abdominal cavity for 8 days; HGC-27 subcutaneous tumor
Description: 2.5×10^6 gastric cancer cells (HGC-27 cells) were subcutaneously inoculated into the flank of a nude mouse (7-week-old, purchased from Japan SLC, Inc.). After 3 weeks when the tumors had reached an average volume of approximately 40 mm^3, and then 400 μl of 6-shogaol at 0 to 200 μg/ml was administered into the abdominal cavity for 8 days. The tumor volume was measured before the first administration of 6-shogaol and after one day from the eighth administration. Comparing volumes of the tumor before and after administration of 6-shogaol, its magnification was evaluated as a growth ratio of the tumor.

[10] = system: gastric cancer cells (HGC-27 cells, AGS cells, and KATO III cells); assay: Cell viability of gastric cancer cells, Cell Titer 96 cell proliferation assay; assay type: cell-based; conditions: 0 to 4 μg/ml, 24 hours, HGC-27, AGS
Description: 1×10^4 gastric cancer cells (HGC-27 cells, AGS cells, and KATO III cells) were seeded in 96 well-plates, and incubated with 6-shogaol (0 to 4 μg/ml) for 24 hours from the next day. Viability of the cells was evaluated in a coloring method using Cell Titer 96 cell proliferation assay (Promega Co., Madison, Wis.), and an absorbance was measured. In this assay, living cells develop color with a reagent, and as the number of living cells is larger, the absorbance is higher. The cell viability was calculated by (absorbance at each addition concentration of 6-shogaol)/(absorbance at 0 μg/ml). Therefore, the viable cell ratio was 1.0 on the basis of 0 μg/ml. 6-shogaol was purchased from Wako Pure Chemical Industries, Ltd. (Osaka, Japan) (purity of 98% or more). Each gastric cancer cell was available from the cell bank in RIKEN BioResource Center (RIKEN BRC cell bank) or ATCC (American Type Culture Collection).

CCCCCCC=CC(=O)N1CCN(c2ccc([N+](=O)[O-])c3nonc23)CC1 [NBD-PZ-CO—CH═CH—(CH2)5—CH3]
binding with tubulins (comigration) ([1]; probe reacted with tubulins, SDS-PAGE): comigrated with the tubulins

CCCCC[C@H](O)CC(=O)CCc1ccc(O)c(OC)c1 [6-gingerol]
influence on comigration of NBD-PZ-CO—CH═CH—(CH2)5—CH3 with tubulins [1]: did not give an influence on comigration

CCC=CCCCCC [CH3—CH2—CH═CH—(CH2)4—CH3]
polymerization of tubulins ([2]; 500 μM compound): gave no influence | reticulate distribution of tubulins (structure of microtubule) [3]: only CH3—CO—CH═CH—(CH2)4—CH3 inhibited a reticulate distribution of tubulins | viable cell ratio [4]: only CH3—CO—CH═CH—(CH2)4—CH3 (∘) decreased the viable cell ratio

CCCCCC=CC(C)=O [CH3—CO—CH═CH—(CH2)4—CH3]
polymerization of tubulins ([2]; 250 μM compound): inhibited polymerization of tubulins | polymerization of tubulins ([2]; 500 μM compound): inhibited polymerization of tubulins | reticulate distribution of tubulins (structure of microtubule) [3]: inhibited a reticulate distribution of tubulins | viable cell ratio [4]: decreased the viable cell ratio

CCCCCCCC(C)=O [CH3—CO—(CH2)6—CH3]
polymerization of tubulins ([2]; 500 μM compound): gave no influence | reticulate distribution of tubulins (structure of microtubule) [3]: only CH3—CO—CH═CH—(CH2)4—CH3 inhibited a reticulate distribution of tubulins | viable cell ratio [4]: only CH3—CO—CH═CH—(CH2)4—CH3 (∘) decreased the viable cell ratio

CCCCC/C=C/C(=O)CCc1ccc(O)c(OC)c1 [6-shogaol]
viability of various cancer cells [5]: decreased the viability | ratio of cells in G2-M stage [6]: significantly increased | amount of SH groups contained in the tubulins [7]: approximately the same effect as 500 μM of CH3—CO—CH═CH—(CH2)5—CH3 | influence on comigration of NBD-PZ-CO—CH═CH—(CH2)5—CH3 with tubulins [1]: the comigration was inhibited | susceptibility to 6-shogaol compared with the other cancer cells [8]: low | growth ratio of tumor [9]: the growth of the tumor was inhibited | cell viability [10]: decreased the cell viability
